“And” between values parts separate entries of the source, which are not always exact repeats. Equal values may be shown once. Toxic doses and inconclusive results are not listed.
System: P388 leukemia ip, CD2F1 mice, survival T/C
Assay: NCI In Vivo Anticancer Drug Screen. Data for tumor model P388 Leukemia (intraperitoneal) in CD2F1 (CDF1) mice
Conditions: endpoint: median survival time, higher = longer survival
Outline: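 Mice carrying the transplanted tumor received test compound or vehicle. Survival was recorded in each group, and the value is the treated-group measurement divided by that of the vehicle-treated control group.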

[1] = dose: 50.0 mg/kg/injection, schedule: Q01DX009 (ip), vehicle: saline with Tween-80
[2] = dose: 100.0 mg/kg/injection, schedule: Q01DX009 (ip), vehicle: saline with Tween-80
[3] = dose: 200.0 mg/kg/injection, schedule: Q01DX009 (ip), vehicle: saline with Tween-80
[4] = dose: 12.5 mg/kg/injection, schedule: Q01DX009 (ip), vehicle: saline with Tween-80
[5] = dose: 25.0 mg/kg/injection, schedule: Q01DX009 (ip), vehicle: saline with Tween-80
[6] = dose: 50.0 mg/kg/injection, schedule: Q01DX005 (ip), vehicle: saline with Tween-80
[7] = dose: 100.0 mg/kg/injection, schedule: Q01DX005 (ip), vehicle: saline with Tween-80
[8] = dose: 200.0 mg/kg/injection, schedule: Q01DX005 (ip), vehicle: saline with Tween-80
[9] = dose: 100.0 mg/kg/injection, schedule: Q04DX003 (ip), vehicle: saline with Tween-80
[10] = dose: 50.0 mg/kg/injection, schedule: Q01DX005 (ip), vehicle: Klucel (hydroxypropylcellulose) (HPC)
[11] = dose: 100.0 mg/kg/injection, schedule: Q01DX005 (ip), vehicle: Klucel (hydroxypropylcellulose) (HPC)
[12] = dose: 50.0 mg/kg/injection, schedule: Q01DX009 (ip), vehicle: saline
[13] = dose: 200.0 mg/kg/injection, schedule: Q04DX003 (ip), vehicle: saline with Tween-80
[14] = dose: 400.0 mg/kg/injection, schedule: Q04DX003 (ip), vehicle: saline with Tween-80
[15] = dose: 25.0 mg/kg/injection, schedule: Q01DX009 (ip), vehicle: other

With O=C(O)c1oc2ccccc2c1C=C(c1ccccc1)c1ccccc1 the T/C [1] was 101 % of control and the T/C [2] was 101 % of control.
COC(=O)c1cc(-c2ccc(F)cc2)[nH]c(=O)c1C#N was tested, and the T/C (dose: 60.0 mg/kg/injection, schedule: Q01DX005 (ip), vehicle: saline with Tween-80) was 97 % of control, the T/C (dose: 120.0 mg/kg/injection, schedule: Q01DX005 (ip), vehicle: saline with Tween-80) was 106 % of control and the T/C (dose: 240.0 mg/kg/injection, schedule: Q01DX005 (ip), vehicle: saline with Tween-80) was 104 % of control.
In the case of O=C(N1CCN(c2ccccc2)C1=O)N1CCN(c2ccccc2)C1=O, the T/C [1] is reported as 98 % of control, the T/C [2] is reported as 95 % of control and the T/C [3] is reported as 91 % of control.
CCOc1c(N=Nc2ccc(O)cc2)c(C)nn1C(=S)SC was tested, and the T/C (dose: 60.0 mg/kg/injection, schedule: Q01DX005 (ip), vehicle: Klucel + Tween-80) was 107 % of control, the T/C (dose: 120.0 mg/kg/injection, schedule: Q01DX005 (ip), vehicle: Klucel + Tween-80) was 104 % of control and the T/C (dose: 240.0 mg/kg/injection, schedule: Q01DX005 (ip), vehicle: Klucel + Tween-80) was 100 % of control.
With Nc1c(C(=O)O)[nH]c(=O)[nH]c1=O the T/C [4] was 119 % of control, the T/C [5] was 119 % of control and the T/C [1] was 120 % of control. For the same molecule, the T/C [2] was 118 % of control.
In the case of CCn1c2ccccc2c2cc(NC(=O)Nc3ccc4c(c3)c3ccccc3n4CC)ccc21, the T/C [6] is reported as 90 % of control, the T/C [7] is reported as 97 % of control and the T/C [8] is reported as 109 % of control.
With COC(=O)C[C@](O)(CCC(C)(C)O)C(=O)O[C@@H]1C(OC)=C[C@]23CCCN2CCc2cc4c(cc2[C@H]13)OCO4 the T/C (dose: 0.5 mg/kg/injection, schedule: Q01DX009 (ip), vehicle: saline) was 177 % of control and the T/C (dose: 1.0 mg/kg/injection, schedule: Q01DX009 (ip), vehicle: saline) was 231 % of control.
In the case of O=C(Nc1ccc(C(=O)O)cc1)Oc1ccc(N(CCCl)CCCl)cc1, the T/C [5] is reported as 209 % of control, the T/C [1] is reported as 159 % of control and the T/C (dose: 66.0 mg/kg/injection, schedule: Q04DX003 (ip), vehicle: saline with Tween-80) is reported as 200 % of control. The T/C [9] was 181 % of control and 200 % of control.
For CCCCCCCCCCCCCCCCCCOC(=O)C(N)CCCCN (configuration not stated), the T/C (dose: 15.0 mg/kg/injection, schedule: Q01DX005 (ip), vehicle: saline) was 96 % of control, the T/C (dose: 30.0 mg/kg/injection, schedule: Q01DX005 (ip), vehicle: saline) was 110 % of control and the T/C (dose: 60.0 mg/kg/injection, schedule: Q01DX005 (ip), vehicle: saline) was 109 % of control and 111 % of control.
For Cc1[nH]nc2c(NCc3ccco3)ncnc12, the T/C (dose: 25.0 mg/kg/injection, schedule: Q04DX003 (ip), vehicle: saline) was 98 % of control, the T/C (dose: 50.0 mg/kg/injection, schedule: Q04DX003 (ip), vehicle: saline) was 104 % of control and the T/C (dose: 100.0 mg/kg/injection, schedule: Q04DX003 (ip), vehicle: saline) was 101 % of control. For the same molecule, the T/C (dose: 200.0 mg/kg/injection, schedule: Q04DX003 (ip), vehicle: saline) was 95 % of control.
With CN1COC(OC2OCN(C)CC2(C)C)C(C)(C)C1 (configuration not stated) the T/C [2] was 160 % of control.
For CC(=O)N1CC(O)(c2ccccc2)CSc2ccccc21 (configuration not stated), the T/C [10] was 95 % of control, the T/C [11] was 95 % of control and the T/C (dose: 200.0 mg/kg/injection, schedule: Q01DX005 (ip), vehicle: Klucel (hydroxypropylcellulose) (HPC)) was 96 % of control.
In the case of C1=CCC23COCC2(C1)CSC3 (configuration not stated), the T/C (dose: 12.5 mg/kg/injection, schedule: Q01DX009 (ip), vehicle: saline) is reported as 96 % of control, the T/C (dose: 25.0 mg/kg/injection, schedule: Q01DX009 (ip), vehicle: saline) is reported as 92 % of control and the T/C [12] is reported as 99 % of control.
For CN(C)c1ccc2c(Oc3ccccc3)cc(N)nc2c1, the T/C [6] was 94 % of control, the T/C [7] was 92 % of control and the T/C [8] was 92 % of control.
For CS(=O)(=O)NCCNS(C)(=O)=O, the T/C [9] was 106 % of control, the T/C [13] was 103 % of control and the T/C [14] was 103 % of control.
CN(C)/C=C\c1c([N+](=O)[O-])ncn1C was tested, and the T/C [6] was 99 % of control, the T/C [7] was 99 % of control and the T/C [8] was 97 % of control.
For CCOP(=O)(OCC)SCSC(C)C, the T/C (dose: 0.04 mg/kg/injection, schedule: Q01DX009 (ip), vehicle: Klucel (hydroxypropylcellulose) (HPC)) was 102 % of control, the T/C (dose: 0.09 mg/kg/injection, schedule: Q01DX009 (ip), vehicle: Klucel (hydroxypropylcellulose) (HPC)) was 102 % of control and the T/C (dose: 0.19 mg/kg/injection, schedule: Q01DX009 (ip), vehicle: Klucel (hydroxypropylcellulose) (HPC)) was 108 % of control.
NC(N)=N/N=C1/C=C2C/C(=N\N=C(N)N)C=C2C1 was tested, and the T/C [10] was 106 % of control and the T/C [11] was 104 % of control.
O=c1c[n+](-c2ccccc2)[nH]o1 was tested, and the T/C (dose: 100.0 mg/kg/injection, schedule: Q04DX003 (ip), vehicle: Klucel (hydroxypropylcellulose) (HPC)) was 109 % of control, the T/C (dose: 200.0 mg/kg/injection, schedule: Q04DX003 (ip), vehicle: Klucel (hydroxypropylcellulose) (HPC)) was 100 % of control and the T/C (dose: 400.0 mg/kg/injection, schedule: Q04DX003 (ip), vehicle: Klucel (hydroxypropylcellulose) (HPC)) was 104 % of control.
For CNC(=S)NNc1ccc(C)cc1, the T/C (dose: 12.5 mg/kg/injection, schedule: Q01DX009 (ip), vehicle: other) was 87 % of control, the T/C [15] was 90 % of control and the T/C (dose: 100.0 mg/kg/injection, schedule: Q01DX009 (ip), vehicle: other) was 92 % of control. The T/C (dose: 200.0 mg/kg/injection, schedule: Q01DX009 (ip), vehicle: other) was 101 % of control.
CC(=O)OCC(=O)[C@@]1(O)CC[C@H]2[C@@H]3CCC4=CC(=O)CC[C@]4(C)[C@@]3(Cl)[C@@H](O)C[C@@]21C was tested, and the T/C (dose: 88.0 mg/kg/injection, schedule: Q04DX003 (ip), vehicle: saline with Tween-80) was 123 % of control, the T/C [2] was 118 % of control and the T/C (dose: 132.0 mg/kg/injection, schedule: Q04DX003 (ip), vehicle: saline with Tween-80) was 123 % of control. For the same molecule, the T/C [3] was 90 % of control, the T/C [13] was 114 % of control and the T/C (dose: 300.0 mg/kg/injection, schedule: Q04DX003 (ip), vehicle: saline with Tween-80) was 123 % of control. For the same molecule, the T/C (dose: 400.0 mg/kg/injection, schedule: Q01DX009 (ip), vehicle: saline with Tween-80) was 100 % of control and the T/C [14] was 109 % of control.
For COc1ccc(C(=O)Cc2cc(OC)c(OC)cc2Br)cc1OC, the T/C (dose: 100.0 mg/kg/injection, schedule: Q01DX001 (ip), vehicle: Klucel (hydroxypropylcellulose) (HPC)) was 93 % of control, the T/C (dose: 200.0 mg/kg/injection, schedule: Q01DX001 (ip), vehicle: Klucel (hydroxypropylcellulose) (HPC)) was 101 % of control and the T/C [8] was 86 % of control. For the same molecule, the T/C (dose: 400.0 mg/kg/injection, schedule: Q01DX001 (ip), vehicle: Klucel (hydroxypropylcellulose) (HPC)) was 99 % of control.
CC1(c2cc(Cl)c(Cl)cc2Cl)NC(=O)NC1=O (configuration not stated) was tested, and the T/C (dose: 100.0 mg/kg/injection, schedule: Q01DX001 (ip), vehicle: saline with Tween-80) was 103 % of control and the T/C (dose: 200.0 mg/kg/injection, schedule: Q01DX001 (ip), vehicle: saline with Tween-80) was 112 % of control.
In the case of NCc1cc(=O)[nH]o1, the T/C [12] is reported as 89 % of control and the T/C (dose: 100.0 mg/kg/injection, schedule: Q01DX009 (ip), vehicle: saline) is reported as 92 % of control.
With Cc1cnc(Cl)nc1Sc1nc(N)nc2nc[nH]c12 the T/C (dose: 4.0 mg/kg/injection, schedule: Q01DX009 (ip), vehicle: saline with Tween-80) was 150 % of control, the T/C [4] was 122 % of control and the T/C (dose: 25.0 mg/kg/injection, schedule: Q04DX003 (ip), vehicle: saline with Tween-80) was 154 % of control. For the same molecule, the T/C (dose: 50.0 mg/kg/injection, schedule: Q04DX003 (ip), vehicle: saline with Tween-80) was 159 % of control and the T/C [9] was 100 % of control.
With CNc1ccc([N+](=O)[O-])cc1C(=O)OC the T/C [4] was 99 % of control, the T/C [5] was 98 % of control and the T/C [1] was 102 % of control.
For CCCCCCCCCCCCCCCC(=O)N(CC#CCN(C(=O)CCCCCCCCCCCCCCC)C(C)CCCN(CC)CC)C(C)CCCN(CC)CC (configuration not stated), the T/C [15] was 97 % of control and the T/C (dose: 50.0 mg/kg/injection, schedule: Q01DX009 (ip), vehicle: other) was 101 % of control.
For O=C1CCCCC1C(=O)C(F)(F)F (configuration not stated), the T/C (dose: 50.0 mg/kg/injection, schedule: Q01DX009 (ip), vehicle: saline + Tween-80 + alcohol) was 116 % of control and the T/C (dose: 100.0 mg/kg/injection, schedule: Q01DX009 (ip), vehicle: saline + Tween-80 + alcohol) was 106 % of control.

Source: PubChem BioAssay AID330 (DTP/NCI, 2004)
